± gives the expanded uncertainty stated by the source.

The conditions of this data set: Liquid, Ebulliometric method (Recirculating still).

`CC(=O)N(C)C` [N,N-dimethylethanamide]: the “vapor or sublimation pressure” value (439.25 K) worked out at 101.33 ± 0.58 kPa.

Regarding `C1=CCCCC1` [cyclohexene], the “vapor or sublimation pressure” value (356.15 K) came out at 101.33 ± 0.55 kPa.

As for `c1ccccc1` [benzene], the “vapor or sublimation pressure” value (353.25 K) is on record as 101.33 ± 0.55 kPa.

With `C1CCCCC1` [cyclohexane], under “353.85 K”, the “vapor or sublimation pressure” value worked out at 101.33 ± 0.55 kPa.

By vapor or sublimation pressure is commonly meant the equilibrium pressure above the liquid or solid.

(Values after the NIST ThermoML archive (doi:10.1021/acs.jced.5b00011).)
